Experimental findings from the supplement of paper PMC10949913 are described below.

Where a name gives a salt, the structure may show the parent alone.

One assay relates to CU-ACC1. As to the kind of experiment: ExcessHSA synergy score with TAK-243; higher = less synergy (negative = synergistic). To be noted: combined with: TAK-243 (MLN-7243) matrix, 9-point 1:2 dilution. As for the experimental part: (§1)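 Each drug was tested at 9 points with 1:2 dilution; viability was read by CellTiter-Glo as in the single-agent screen. Synergy is scored as ExcessHSA (sum of excess over highest single agent; negative = synergy) and the Beta interaction parameter (<1 synergy).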

For a further assay, the system named is NCI-H295R. The description is as above. The conditions noted are these: combined with: TAK-243 (MLN-7243) matrix, 9-point 1:2 dilution. As for the experimental part:
as §1

As for `Cc1nc2ccc(F)cc2n1-c1nc(N)c(F)c(Nc2ccc(C(F)(F)F)cc2)n1` [PTC596], the “ExcessHSA synergy score with TAK-243” value was -119 with CU-ACC1 and -3.1 with NCI-H295R.
In the same order, the values of `CO[C@H]1CN(C)C(=O)c2cc(NC(=O)NC(C)C)ccc2OC[C@H](C)N(Cc2ccc(-c3ccccn3)cc2)C[C@@H]1C` [BD98] are -213 and -760.
Consider `C[C@@H]1OCC2(CCN(c3cnc(Sc4ccnc(N)c4Cl)c(N)n3)CC2)[C@@H]1N` [TNO-155], for which the entries for the “ExcessHSA synergy score with TAK-243” value with CU-ACC1 and with NCI-H295R were 176 and 322, respectively.
In the same order, the values of `COC(=O)[C@]12CCC(C)(C)C[C@H]1[C@H]1C(=O)C=C3[C@@]4(C)C=C(C#N)C(=O)C(C)(C)[C@@H]4CC[C@@]3(C)[C@]1(C)CC2` [CDDO-Me] are 94.3 and 271.
In the same order, the values of `CC1=C(/C=C/C(C)=C/C=C/C(C)=C\C(=O)O)C(C)(C)CCC1` [Isotretinoin] are 563 and 636.
In the same order, the values of `O=C(O)CNC(=O)c1ncc(-c2cccc(Cl)c2)cc1O` are -199 and 289.
For `C=CCn1c(=O)c2cnc(Nc3ccc(N4CCN(C)CC4)cc3)nc2n1-c1cccc(C(C)(C)O)n1` [MK-1775], the “ExcessHSA synergy score with TAK-243” value in the assay with CU-ACC1 turned out to be 295; with NCI-H295R, 169.
In the same order, the values of `O=C(c1cc(Cc2n[nH]c(=O)c3ccccc23)ccc1F)N1CCN(C(=O)C2CC2)CC1` [Olaparib] are 468 and 859.
For `CN1CCN(c2ccc(Nc3ncc4cc5n(c4n3)C3(CCCCC3)CNC5=O)nc2)CC1` [Trilaciclib (hydrochloride)], the results for the “ExcessHSA synergy score with TAK-243” value in the assay with CU-ACC1 and in the assay with NCI-H295R were -171 and 125, respectively.
For `CNc1nc(NC2CCN(Cc3ccc4c(cc(C#N)n4C[C@H](C)N4CCN(S(C)(=O)=O)CC4)c3C)CC2)c2cc(CC(F)(F)F)sc2n1` [Ziftomenib (KO-539)], the “ExcessHSA synergy score with TAK-243” value with CU-ACC1 is -443; in the assay with NCI-H295R, -888.
In the same order, the values of `CC(C)c1cc(-c2n[nH]c(=O)n2-c2ccc3c(ccn3C)c2)c(O)cc1O` [Ganetespib (STA-9090)] are 400 and -59.8.
In the same order, the values of `CCCCCCCCc1ccc(CCC(N)(CO)CO)cc1` [Fingolimod hydrochloride] are -48.2 and 127.
As to `CC1(C)CC[C@]2(NC(=O)C(C)(F)F)CC[C@]3(C)[C@H](C(=O)C=C4[C@@]5(C)C=C(C#N)C(=O)C(C)(C)[C@@H]5CC[C@]43C)[C@@H]2C1` [Omaveloxolone (RTA-408)], the “ExcessHSA synergy score with TAK-243” value with CU-ACC1 came to 367; with NCI-H295R, 323.
In the same order, the values of `O=C(c1cc(-c2cc3c(cc2C(=O)N2Cc4ccccc4CC2CN2CCOCC2)OCO3)n2c1CCCC2)N(c1ccccc1)c1ccc(O)cc1` (stereo not drawn) are -937 and -903.
In the same order, the values of `CN1C(=O)[C@@H](NC(=O)c2n[nH]c(Cc3ccccc3)n2)COc2ccccc21` are 359 and 714.
With `NCCCC[C@H](NC(=O)[C@@H](NC(=O)[C@H](Cc1c[nH]c2ccccc12)NC(=O)[C@H](CCCCN)NC(=O)[C@H](CCCCN)NC(=O)[C@H](Cc1c[nH]c2ccccc12)NC(=O)[C@H](Cc1c[nH]c2ccccc12)NC(=O)[C@H](CCCCN)NC(=O)[C@@H](N)CCCCN)C(c1ccccc1)c1ccccc1)C(N)=O` [Oncopore], the results for the “ExcessHSA synergy score with TAK-243” value in the assay on CU-ACC1 and with NCI-H295R were 401 and 391, respectively.
`COc1ncnc(C2CC2)c1-c1ncc2cnn(Cc3ccc(-c4nc(C(F)(F)F)cn4C(C)C)cc3)c2n1` [KSQ-4279]: the figures for the “ExcessHSA synergy score with TAK-243” value in the assay with CU-ACC1 and in the assay on NCI-H295R were -545 and -796, respectively.
Take `O=C1NC(=O)C(c2cnc3ccccn23)=C1c1cn2c3c(cc(F)cc13)CN(C(=O)N1CCCCC1)CC2`: the “ExcessHSA synergy score with TAK-243” value with CU-ACC1 was determined as 432; with NCI-H295R, 305.
In the same order, the values of `Cc1cnc(CNC(=O)c2c(=O)c3ccc(N4CCCN(C)CC4)nc3n3c2sc2ccccc23)cn1` [CX-5461] are 210 and 895.
In the same order, the values of `CC(C)Nc1cc(-c2c[nH]c(C(=O)N[C@H](CO)c3cccc(Cl)c3)c2)c(Cl)cn1` [Ulixertinib] are -564 and -674.
On to `COc1ccc(C(=O)N2CCN(c3ccc4c(c3)CCC(=O)N4)CC2)cc1OC` [Vesnarinone], for which the figures for the “ExcessHSA synergy score with TAK-243” value in the assay on CU-ACC1 and in the assay with NCI-H295R were 628 and 706, respectively.
In the same order, the values of `O=C1CC[C@H](N2Cc3c(OCc4ccc(CN5CCOCC5)cc4)cccc3C2=O)C(=O)N1` [Iberdomide] are 393 and 1110.
With `CO[C@H]1C(=O)[C@]2(C)[C@@H](OC)C[C@H]3OC[C@@]3(OC(C)=O)[C@H]2[C@H](OC(=O)c2ccccc2)[C@]2(O)C[C@H](OC(=O)[C@H](O)[C@@H](NC(=O)OC(C)(C)C)c3ccccc3)C(C)=C1C2(C)C` [Cabazitaxel], the “ExcessHSA synergy score with TAK-243” value is 396 with CU-ACC1 and -364 in the assay on NCI-H295R.
In the same order, the values of `O=C(NCc1cc(F)cc(F)c1)[C@@]1(O)CCN(c2ccc3[nH]ccc3c2)C1=O` [M8891] are 34 and 171.
In the same order, the values of `CC1(C)CCC(c2ccc(Cl)cc2)=C(CN2CCN(c3ccc(C(=O)NS(=O)(=O)c4ccc(N[C@H](CCN5CCOCC5)CSc5ccccc5)c(S(=O)(=O)C(F)(F)F)c4)cc3)CC2)C1` [Navitoclax] are -563 and -505.
In the same order, the values of `Nc1ccn([C@@H]2O[C@H](CO)[C@@H](O)[C@@H]2O)c(=O)n1` [Cytarabine] are 457 and 789.
As for `Nc1nc(NC2CC2)cc(-c2cccc(Cl)c2Cl)n1` [TH588], the “ExcessHSA synergy score with TAK-243” value with CU-ACC1 is -251; in the assay on NCI-H295R it was -172.
In the same order, the values of `CNC(=O)c1ccc(Nc2ncc(C(F)(F)F)c(NCc3nccnc3N(C)S(C)(=O)=O)n2)cc1` [Defactinib] are 223 and 245.
On to `CC1(C)CCC2(CC1)N[C@@H](C(=O)N[C@@H]1CC[C@@H](C(N)=O)OC1)[C@H](c1ccnc(Cl)c1F)[C@]21C(=O)Nc2cc(Cl)ccc21` [Milademetan], for which the “ExcessHSA synergy score with TAK-243” value with CU-ACC1 was -380; in the assay with NCI-H295R, -111.
In the same order, the values of `O=C(O)c1ccc(CN2CCC(CN[C@@H]3C[C@H]3c3ccccc3)CC2)cc1` are -27.5 and 23.7.
Regarding `COc1cc([C@@H](CC(=O)O)c2ccc(C)c(CN3C[C@@H](C)Oc4ccccc4S3(=O)=O)c2)cc2nnn(C)c12` [KI-696], the results for the “ExcessHSA synergy score with TAK-243” value with CU-ACC1 and with NCI-H295R were 533 and 351, respectively.
Consider `Cc1nc(=O)c2cc(CN(C)c3ccc(C(=O)N[C@@H](CCC(=O)O)C(=O)O)s3)ccc2[nH]1` [Raltitrexed], for which the “ExcessHSA synergy score with TAK-243” value in the assay with CU-ACC1 is -398; with NCI-H295R, -54.1.
For `Cc1[nH]c2ccccc2c1CCNCc1ccc(/C=C/C(=O)NO)cc1` [Panobinostat], the “ExcessHSA synergy score with TAK-243” value was 181 in the assay on CU-ACC1 and -23.3 in the assay on NCI-H295R.
In the same order, the values of `NS(=O)(=O)OC[C@@H]1C[C@@H](n2ccc3c(N[C@H]4CCc5ccccc54)ncnc32)C[C@@H]1O` [MLN-4924] are -111 and -344.
In the same order, the values of `Cc1ccc(NC(=O)NCc2ccc3c(c2)CN(C2CCC(=O)NC2=O)C3=O)cc1Cl` (stereo not drawn) [CC-885] are 356 and 370.
In the same order, the values of `COc1cc2c(c(OC)n1)[C@]1(O)[C@H](O)[C@H](CN(C)C)[C@@H](c3ccccc3)[C@]1(c1ccc(C#N)cc1)O2` [Zotatifin] are 1170 and 686.
For `O=C(O)C1(C(=O)O)CCC1.[NH2-].[NH2-].[Pt+2]` [Carboplatin], the “ExcessHSA synergy score with TAK-243” value is -188 with CU-ACC1 and -21.5 in the assay with NCI-H295R.
Turning to `C[C@@H]1CN(Cc2ccc(F)cc2)[C@@H](C)CN1C(=O)c1cc2c(C(=O)C(=O)N(C)C)cn(C)c2cc1Cl` [Talmapimod], the results for the “ExcessHSA synergy score with TAK-243” value in the assay with CU-ACC1 and with NCI-H295R were 218 and 657, respectively.
In the same order, the values of `CCc1cc(C(N)=O)ccc1-n1nc(C(C)C)c2c(-n3cnc(-c4cnn(C)c4)c3)ccnc21` [Pimitespib] are 959 and 586.
In the same order, the values of `CC(C)[C@@H](CS(=O)(=O)C(C)C)N1C(=O)[C@@](C)(CC(=O)O)C[C@H](c2cccc(Cl)c2)[C@H]1c1ccc(Cl)cc1` [AMG 232] are -130 and 236.
In the same order, the values of `C[C@@H]1C[C@H]2[C@@H]3CCC4=CC(=O)C=C[C@]4(C)[C@@]3(F)[C@@H](O)C[C@]2(C)[C@@]1(O)C(=O)CO` [Dexamethasone] are 420 and 743.
Turning to `Cc1cc(C(=O)CN2CCCCC2)c(C)n1-c1ccc(Cl)cc1` [IU1-47], the “ExcessHSA synergy score with TAK-243” value with CU-ACC1 was -58.7; in the assay on NCI-H295R, 125.
With `C#CCC(Cc1cnc2nc(N)nc(N)c2n1)c1ccc(C(=O)N[C@@H](CCC(=O)O)C(=O)O)cc1` (stereo partly drawn) [Pralatrexate], the entries for the “ExcessHSA synergy score with TAK-243” value in the assay with CU-ACC1 and in the assay with NCI-H295R were 137 and -57.8, respectively.
Turning to `Nc1ccn([C@@H]2O[C@H](CO)[C@@H](O)C2(F)F)c(=O)n1` [Gemcitabine], the “ExcessHSA synergy score with TAK-243” value in the assay with CU-ACC1 is -457; with NCI-H295R it was 236.
